# Where no end group is shown, it is not given here.
# Legend:
# [1] = system: MDR E. coli ASEC 7; set-up: method as in Asan hospital; key to susceptibility category: S: susceptible; R: resistant; I: intermediate; conditions: ref Asan hospital, cited from earlier work; for MIC: ASEC 7 (ESBL), resistance information of clinical isolate; for susceptibility category: ASEC 7
# [2] = system: MDR E. coli ASEC 6; set-up: method as in Asan hospital; key to susceptibility category: S: susceptible; R: resistant; I: intermediate; conditions: ref Asan hospital, cited from earlier work; for MIC: ASEC 6 (ESBL), resistance information of clinical isolate; for susceptibility category: ASEC 6
# [3] = system: ASEC 16 biofilm; conditions: crystal violet A595, 24 h, three independent experiments
# Experimental: (§1) Crystal violet staining was performed to determine the degree of biofilm formation by the E. coli 25922, S. aureus 25923, and ASEC strains. E. coli 25922 and S. aureus 25923 were cultured overnight in LB and TSB media with aeration at 180 rpm, respectively. Bacterial suspensions with 0.2% glucose (5 × 10^5 CFU mL^−1) were added to a 96-well plate (30096, surface treatment; SPL Life Sciences) and incubated for 24 h at 37°C. The supernatant was removed and fixed with 100% methanol. Next, 100 μL of crystal violet was added to the plate and incubated to dye the cells for 1 h, followed by rinsing the cells three times with distilled water (dH2O). After the crystal violet was dissolved with 95% ethanol, the mass of biofilm formation at 595 nm was measured using a Versa Max microplate reader (Molecular Devices). The inhibitory effect of PN5 against biofilm formed by E. coli 25922, S. aureus 25923, and three MDR E. coli strains (ASEC 2, 16, and 18) were determined. These cells were cultured overnight in LB and TSB media. Bacterial suspensions (5 × 10^5 CFU mL^−1) containing 0.2% glucose were added to 96-well plates and PN5 was serially diluted to a final concentration of 32 μM. The minimal biofilm inhibitory concentration (MBIC) was determined in three independent experiments. The percentage of biofilm formation was measured using the equation (A595 of treated biofilm/A595 of untreated biofilm) × 100. Similarly, the MDR ASEC 1 to 19 strains were cultured overnight in LB medium and seeded into 96-well plates with medium containing 0.2% glucose at 5 × 10^5 CFU mL^−1 of the bacterial suspension. Biofilm staining was performed as described above. SYTO 9 (6 μM) fluorescence in LIVE/DEAD BacLight was used to visualize the degree of biofilm formation. […] After 24 h, the culture supernatant of the peptide and bacteria was discarded, and the pellet was fixed with 100% methanol. A fluorescence mixture of SYTO 9 and propidium iodide was then added to each well, and the fluorescence was evaluated with an EVOS FL color imaging system (Thermo Fisher Scientific) with a 4× objective ([22]).
# [4] = system: ASEC 18 biofilm; conditions: crystal violet A595, 24 h, three independent experiments
# Experimental: as §1
# [5] = system: ASEC 2 biofilm; conditions: for biofilm formation visualized with SYTO 9: antibiotics at 32 μM, 24 h, SYTO 9 staining (Fig. 3F); for MBIC50: crystal violet A595, 24 h, three independent experiments
# Experimental: as §1
# [6] = system: MDR E. coli ASEC 15; set-up: method as in Asan hospital; key to susceptibility category: S: susceptible; R: resistant; I: intermediate; conditions: ref Asan hospital, cited from earlier work; for MIC: ASEC 15 (AmpC), resistance information of clinical isolate; for susceptibility category: ASEC 15
# [7] = system: MDR E. coli ASEC 17; set-up: method as in Asan hospital; key to susceptibility category: S: susceptible; R: resistant; I: intermediate; conditions: ref Asan hospital, cited from earlier work; for MIC: ASEC 17 (AmpC), resistance information of clinical isolate; for susceptibility category: ASEC 17
# [8] = system: MDR E. coli ASEC 9; set-up: method as in Asan hospital; key to susceptibility category: S: susceptible; R: resistant; I: intermediate; conditions: ref Asan hospital, cited from earlier work; for MIC: ASEC 9 (ESBL), resistance information of clinical isolate; for susceptibility category: ASEC 9
# [9] = system: MDR E. coli ASEC 2; set-up: method as in Asan hospital; key to susceptibility category: S: susceptible; R: resistant; I: intermediate; conditions: ref Asan hospital, cited from earlier work; for MIC: ASEC 2 (NDM-7), resistance information of clinical isolate; for susceptibility category: ASEC 2
# [10] = system: MDR E. coli ASEC 18; set-up: method as in Asan hospital; key to susceptibility category: S: susceptible; R: resistant; I: intermediate; conditions: ref Asan hospital, cited from earlier work; for MIC: ASEC 18 (AmpC), resistance information of clinical isolate; for susceptibility category: ASEC 18
# [11] = system: MDR E. coli ASEC 13; set-up: method as in Asan hospital; key to susceptibility category: S: susceptible; R: resistant; I: intermediate; conditions: ref Asan hospital, cited from earlier work; for MIC: ASEC 13 (AmpC), resistance information of clinical isolate; for susceptibility category: ASEC 13
# [12] = system: MDR E. coli ASEC 12; set-up: method as in Asan hospital; key to susceptibility category: S: susceptible; R: resistant; I: intermediate; conditions: ref Asan hospital, cited from earlier work; for MIC: ASEC 12 (AmpC), resistance information of clinical isolate; for susceptibility category: ASEC 12
# [13] = system: MDR E. coli ASEC 16; set-up: method as in Asan hospital; key to susceptibility category: S: susceptible; R: resistant; I: intermediate; conditions: ref Asan hospital, cited from earlier work; for MIC: ASEC 16 (AmpC), resistance information of clinical isolate; for susceptibility category: ASEC 16
compound,measurement,setting,value
CO/N=C(\C(=O)N[C@@H]1C(=O)N2C(C(=O)O)=C(COC(C)=O)CS[C@H]12)c1csc(N)n1 [Cefotaxime],MIC,[1],> 32 µg/mL
same,susceptibility category,[1],R
same,MIC,[2],> 32 µg/mL
same,susceptibility category,[2],R
same,MBIC50,[3],128 (58.3) μM
same,MBIC50,[4],>128 (>58.3) μM
same,biofilm formation visualized with SYTO 9,[5],did not inhibit biofilm formation
same,MBIC50,[5],>128 (>58.3) μM
same,MIC,[6],> 32 µg/mL
same,susceptibility category,[6],R
same,MIC,[7],> 32 µg/mL
same,susceptibility category,[7],R
same,MIC,[8],> 32 µg/mL
same,susceptibility category,[8],R
same,MIC,[9],> 32 µg/mL
same,susceptibility category,[9],R
same,MIC,[10],32 µg/mL
same,susceptibility category,[10],R
same,MIC,[11],> 32 µg/mL
same,susceptibility category,[11],R
same,MIC,[12],> 32 µg/mL
same,susceptibility category,[12],R
same,MIC,[13],> 32 µg/mL
same,susceptibility category,[13],R
CC(C)(O/N=C(\C(=O)N[C@@H]1C(=O)N2C(C(=O)[O-])=C(C[n+]3ccccc3)CS[C@H]12)c1csc(N)n1)C(=O)O [Ceftazidime],MIC,[1],> 16 µg/mL
same,susceptibility category,[1],R
same,MIC,[2],> 16 µg/mL
same,susceptibility category,[2],R
same,MBIC50,[3],>128 (>69.95) μM
same,MBIC50,[4],>128 (>69.95) μM
same,biofilm formation visualized with SYTO 9,[5],did not inhibit biofilm formation
same,MBIC50,[5],>128 (>69.95) μM
same,MIC,[6],> 16 µg/mL
same,susceptibility category,[6],R
same,MIC,[7],> 16 µg/mL
same,susceptibility category,[7],R
same,MIC,[8],> 16 µg/mL
same,susceptibility category,[8],R
same,MIC,[9],> 16 µg/mL
same,susceptibility category,[9],R
same,MIC,[10],> 16 µg/mL
same,susceptibility category,[10],R
same,MIC,[11],> 16 µg/mL
same,susceptibility category,[11],R
same,MIC,[12],16 µg/mL
same,susceptibility category,[12],R
same,MIC,[13],> 16 µg/mL
same,susceptibility category,[13],R
C[C@@H](O)[C@H]1C(=O)N2C(C(=O)O)=C(S[C@@H]3CN[C@H](C(=O)N(C)C)C3)[C@H](C)[C@H]12 [Meropenem],MIC,[1],<= 1 μg mL-1
same,susceptibility category,[1],S
same,MIC,[2],> 8 µg/mL
same,susceptibility category,[2],R
same,MBIC50,[3],<2 (<0.77) μM
same,MBIC50,[4],<2 (<0.77) μM
same,biofilm formation visualized with SYTO 9,[5],did not inhibit biofilm formation
same,MBIC50,[5],64 (24.54) μM
same,MIC,[6],<= 1 μg mL-1
same,susceptibility category,[6],S
same,MIC,[7],<= 1 μg mL-1
same,susceptibility category,[7],S
same,MIC,[8],<= 1 μg mL-1
same,susceptibility category,[8],S
same,MIC,[9],> 8 µg/mL
same,susceptibility category,[9],R
same,MIC,[10],<= 1 μg mL-1
same,susceptibility category,[10],S
same,MIC,[11],> 8 µg/mL
same,susceptibility category,[11],R
same,MIC,[12],> 8 µg/mL
same,susceptibility category,[12],R
same,MIC,[13],<= 1 μg mL-1
same,susceptibility category,[13],S
FKFLARTGKFL-NH2 [PN5],MBIC50,[3],16 (21.22) μM
same,MBIC50,[4],16 (21.22) μM
same,MBIC50,[5],8 (10.61) μM
